Measurements taken from patent publication US6464991B1, “Oat lipid based surfactants and derivatives and process for preparing same” (Finetex, Inc., priority 1999, dated 2002).

Key:
[1] = test system: Skin Tissue Model; experiment: Dermal irritation, Mat-Tek in-vitro Skin Tissue Model (non-animal); type: cell-based
Excerpt: (§1) These studies were done using non-animal test protocols. Skin Tissue Model and Ocular Tissue Model by Mat-Tek Corporation in-vitro systems were used for dermal and ocular irritation studies.

[2] = test system: Ocular Tissue Model; experiment: Ocular irritation, Mat-Tek in-vitro Ocular Tissue Model (non-animal); type: cell-based
Excerpt: as §1

nonylphenol 10 EO Ethoxylate [Positive Control]
Dermal Tox Irritation Ratings/Classifications [1]: Moderate to mild range
Ocular Tox Irritation Ratings/Classifications [2]: Moderate to mild range
